Reference: publication PMC7930575, “Comparison of the Inhibitory Binding Modes Between the Planar Fascaplysin and Its Nonplanar Tetrahydro-β-carboline Analogs in CDK4” (Frontiers in Chemistry, 2021)
Read-outs that look alike come from different tables or passages of the source.

Key:
[1] = tested on: A549; experiment: MTT cytotoxicity assay, A549 cells, 48 h; type: cell-based; settings: Homo sapiens, read-out: Cytotoxicity (IC50, μM) A549
Procedure: (§1) The cytotoxicity of the target compounds was evaluated via MTT assay; A549, HeLa, HepG2, and WI-38 were selected for the experiment; and the selected cell lines were purchased from Lanzhou Weihuan Biotechnology Development Co., Ltd. All cell lines were maintained in RPMI-1640 medium supplemented with 10% fetal calf serum under the environment of 5% CO2 concentration and 37°C. The incubated tumor cells were seeded in the prepared 96-well plates, respectively, to make them attach for 12 h. Afterward, the cells were processed with the synthesized compounds with different concentrations as well as fascaplysin as the reference group for 48 h. After 48 h, 10 μl of MTT solution (5 mg/ml in PBS) was added into each well and incubated for 4 h. Then, the medium was removed and 100 μl DMSO was added to dissolve the blue-colored formazan. The absorbance was detected at 570 nm by microplate reader to calculate the inhibition rate (%) and the IC50 was defined using GraphPad Prism Software (version 5.02) (shown in Table 1).

[2] = tested on: HeLa; experiment: MTT cytotoxicity assay, HeLa cells, 48 h; type: cell-based; settings: Homo sapiens, read-out: Cytotoxicity (IC50, μM) HeLa
Procedure: as §1

[3] = tested on: HepG2; experiment: MTT cytotoxicity assay, HepG2 cells, 48 h; type: cell-based; settings: Homo sapiens, read-out: Cytotoxicity (IC50, μM) HepG2
Procedure: as §1

[4] = MTT cytotoxicity assay, normal cells WI-38, 48 h; type: cell-based; settings: human
Procedure: as §1

[5] = biological target: T1, CDK4/CycD3 (Homo sapiens, UniProt P11802); experiment: CDK4 kinase inhibition assay (mobility shift assay); type: biochemical; settings: mean of three independent experiments
T1 construct: purchased Cama
T1 sequence (P11802 whole entry): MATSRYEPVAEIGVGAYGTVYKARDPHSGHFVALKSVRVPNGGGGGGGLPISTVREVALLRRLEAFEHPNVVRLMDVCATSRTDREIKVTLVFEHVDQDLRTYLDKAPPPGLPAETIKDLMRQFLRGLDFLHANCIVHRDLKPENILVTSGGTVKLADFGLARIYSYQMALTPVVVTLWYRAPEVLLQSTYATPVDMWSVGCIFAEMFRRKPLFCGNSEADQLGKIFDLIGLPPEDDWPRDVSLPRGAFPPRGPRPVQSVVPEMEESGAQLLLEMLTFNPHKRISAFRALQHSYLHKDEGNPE
T1 sequence (P30281 whole entry partner): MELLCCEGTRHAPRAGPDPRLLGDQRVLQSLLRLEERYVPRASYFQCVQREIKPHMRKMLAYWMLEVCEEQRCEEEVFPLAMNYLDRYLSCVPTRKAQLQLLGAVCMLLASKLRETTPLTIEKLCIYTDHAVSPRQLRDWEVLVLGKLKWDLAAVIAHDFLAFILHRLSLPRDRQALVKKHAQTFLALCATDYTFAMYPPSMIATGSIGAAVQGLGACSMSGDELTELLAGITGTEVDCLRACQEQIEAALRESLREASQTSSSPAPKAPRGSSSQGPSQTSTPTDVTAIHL
Procedure: In this study, the inhibitory activities of the synthesized compounds against CDK4/CycD3 were also evaluated using mobility shift assay, and fascaplysin was used as the positive control compound. CDK4/CycD3 was from Cama, kinase substrate peptide was from GL, and fascaplysin was from Selleckchem. First, the kinase base buffer should be prepared (50.0 mmol/L HEPES, pH 7.5, 5 mM MgCl2, 1 mmol DTT, 0.0015% Brij-35). Second, 50 μg CDK4 kinase was added to the kinase base buffer to prepare the kinase solution. The kinase base buffer was used to prepare ATP and substrate peptide solutions, and the obtained solutions were mixed. Third, the synthesized compounds as well as the fascaplysin were diluted with DMSO to the desired concentrations. Fourth, the reaction mixture was incubated at 30°C for 40 min, and 25 μl stop buffer was added to stop the reaction. Finally, conversion was read by Caliper, and GraphPad Prism 5.0 was used to calculate the IC50 values of the compounds against enzyme bioactivities (Table 2).

[6] = A549, MTT assay, 48 h, three independent experiments
[7] = MTT assay, three independent experiments
[8] = HepG2, MTT assay, 48 h, three independent experiments
[9] = WI-38 cells (normal cell line), normal cell line, MTT assay, 48 h, three independent experiments, read-out: Cytotoxicity (IC50, μM) WI-38

| SMILES | IC50 [1, 6] | IC50 [2, 7] | IC50 [3, 8] | IC50 at 48 h [4, 9] | IC50 [5] | melting point | IC50 ([1]; A549, 48 h) | IC50 [2] | IC50 ([3]; HepG2, 48 h) | IC50 at 48 h [4] |
| --- | --- | --- | --- | --- | --- | --- | --- | --- | --- | --- |
| COC(=O)C1c2[nH]c3ccccc3c2CCN1C(=O)c1ccc(F)cc1 (stereo not drawn) [Compound 6a, Methyl-2-(4-fluorobenzoyl)-2,3,4,9-tetrahydro-1H-pyrido [3,4-b] indole-1-carboxylate] | 38.3 ± 2.53 µM | 28.4 ± 1.12 µM | 31.6 ± 2.53 µM | 253 ± 33.2 µM | 29.6 µM | 182.8 to 183.7 °C | – | – | – | – |
| COC(=O)C1c2[nH]c3ccccc3c2CCN1C(=O)c1ccc(OC)cc1 (stereo not drawn) [Compound 6b, Methyl-2-(4-methoxybenzoyl)-2,3,4,9-tetrahydro-1H-pyrido [3,4-b] indole-1-carboxylate] | 13.2 ± 1.21 µM | 14.1 ± 2.69 µM | 26.3 ± 1.88 µM | 267 ± 28.9 µM | 25.7 µM | 200.8 to 201.6 °C | – | – | – | – |
| COC(=O)C1c2[nH]c3ccccc3c2CCN1C(=O)c1ccc(-c2ccccc2)cc1 (stereo not drawn) [Compound 6c, Methyl-2-([1, 1’-biphenyl]-4-carbonyl)-2,3,4,9-tetrahydro-1H-pyrido [3,4-b] indole-1 carboxylate] | 6.53 ± 1.65 µM | 1.03 ± 0.19 µM | 5.21 ± 0.58 µM | 312 ± 56.1 µM | 1.89 µM | 177.8 to 179.6 °C | – | – | – | – |
| COC(=O)C1c2[nH]c3ccccc3c2CCN1C(=O)c1ccc(I)cc1 (stereo not drawn) [Compound 6d, Methyl-2-(4-iodobenzoyl)-2,3,4,9-tetrahydro-1H-pyrido [3,4-b] indole-1-carboxylate] | 10.8 ± 1.17 µM | 19.4 ± 2.56 µM | 33.4 ± 5.18 µM | 373 ± 62.8 µM | 30.3 µM | 195.6 to 196.5 °C | – | – | – | – |
| COC(=O)C1c2[nH]c3ccccc3c2CCN1C(=O)c1ccccc1 (stereo not drawn) [Compound 6e, Methyl-2-benzoyl-2,3,4,9-tetrahydro-1H-pyrido [3,4-b] indole-1-carboxylate] | 15.5 ± 1.26 µM | 16.8 ± 4.12 µM | 31.8 ± 2.86 µM | 118 ± 12.9 µM | 20.7 µM | – | – | – | – | – |
| COC(=O)C1c2[nH]c3ccccc3c2CCN1C(=O)c1ccc(C(F)(F)F)cc1 (stereo not drawn) [Compound 6f, Methyl-2-(4-(trifluoromethyl)benzoyl)-2,3,4,9-tetrahydro-1H-pyrido [3,4-b] indole-1-carboxylate] | 38.7 ± 7.25 µM | 29.9 ± 4.73 µM | 35.8 ± 3.23 µM | 125 ± 26.1 µM | 39.6 µM | 193.3 to 194.36 °C | – | – | – | – |
| COC(=O)C1c2[nH]c3ccccc3c2CCN1C(=O)c1ccc(Cl)cc1 (stereo not drawn) [Compound 6g, Methyl 2-(4-chlorobenzoyl)-2,3,4,9-tetrahydro-1H-pyrido[3,4-b] indole-1-carboxylate] | 25.7 ± 8.78 µM | 22.9 ± 2.31 µM | 13.7 ± 2.13 µM | 375 ± 60 µM | 27.5 µM | 200.3 to 201.5 °C | – | – | – | – |
| COC(=O)C1c2[nH]c3ccccc3c2CCN1C(=O)c1ccc2ccccc2c1 (stereo not drawn) [Compound 6h, Methyl-2-(2-naphthoyl)-2,3,4,9-tetrahydro-1H-pyrido [3,4-b] indole-1-carboxylate] | 12.7 ± 1.2 µM | 10.8 ± 2.69 µM | 19.5 ± 0.43 µM | 186 ± 12.4 µM | 12.4 µM | 183.6 to 184.5 °C | – | – | – | – |
| COC(=O)C1c2[nH]c3ccccc3c2CCN1C(=O)c1ccc2c(c1)OCO2 (stereo not drawn) [Compound 6i, Methyl-2-(benzo [d] [1,3]dioxole-5-carbonyl)-2,3,4,9-tetrahydro-1H-pyrido [3,4-b] indole-1-carboxylate] | 9.6 ± 3.22 µM | 3.57 ± 0.93 µM | 12.2 ± 3.01 µM | 247 ± 10.9 µM | 3.38 µM | 165.3 to 166.7 °C | – | – | – | – |
| CCOC(=O)C1c2[nH]c3ccccc3c2CCN1C(=O)c1ccc(F)cc1 (stereo not drawn) [Compound 7a, Ethyl-2-(4-fluorobenzoyl)-2,3,4,9-tetrahydro-1H-pyrido [3,4-b] indole-1-carboxylate] | 39.5 ± 4.98 µM | 29.6 ± 7.07 µM | 47.5 ± 4.11 µM | 255 ± 86.3 µM | 31.6 µM | 199.5 to 201.7 °C | – | – | – | – |
| CCOC(=O)C1c2[nH]c3ccccc3c2CCN1C(=O)c1ccc(OC)cc1 (stereo not drawn) [Compound 7b, Ethyl-2-(4-methoxybenzoyl)-2,3,4,9-tetrahydro-1H-pyrido [3,4-b] indole-1-carboxylate] | 15.5 ± 13.4 µM | 15.4 ± 3.1 µM | 41.5 ± 2.42 µM | 429 ± 38.9 µM | 30.7 µM | 206.9 to 209.8 °C | – | – | – | – |
| CCOC(=O)C1c2[nH]c3ccccc3c2CCN1C(=O)c1ccc(-c2ccccc2)cc1 (stereo not drawn) [Compound 7c, Ethyl 2-([1, 1’-biphenyl]-4-carbonyl)-2,3,4,9-tetrahydro-1H-pyrido [3,4-b] indole-1 carboxylate] | 10.5 ± 1.5 µM | 4.71 ± 0.7 µM | 10.8 ± 1.49 µM | 281 ± 7.81 µM | 4.89 µM | 201.4 to 201.8 °C | – | – | – | – |
| CCOC(=O)C1c2[nH]c3ccccc3c2CCN1C(=O)c1ccc(I)cc1 (stereo not drawn) [Compound 7d, Ethyl-2-(4-iodobenzoyl)-2,3,4,9-tetrahydro-1H-pyrido[3,4-b] indole-1-carboxylate] | 20.4 ± 2.68 µM | 27.6 ± 2.38 µM | 28.2 ± 0.95 µM | 183 ± 17.9 µM | 35.3 µM | 175.6 to 176.3 °C | – | – | – | – |
| CCOC(=O)C1c2[nH]c3ccccc3c2CCN1C(=O)c1ccccc1 (stereo not drawn) [Compound 7e, Ethyl-2-benzoyl-2,3,4,9-tetrahydro-1H-pyrido [3,4-b] indole-1-carboxylate] | 27.3 ± 6.5 µM | 19.9 ± 2.45 µM | 21.4 ± 1.69 µM | 99.8 ± 9.97 µM | 29.7 µM | 196.5 to 198.6 °C | – | – | – | – |
| CCOC(=O)C1c2[nH]c3ccccc3c2CCN1C(=O)c1ccc(C(F)(F)F)cc1 (stereo not drawn) [Compound 7f, Ethyl-2-(4-(trifluoromethyl)benzoyl)-2,3,4,9-tetrahydro-1H-pyrido [3,4-b] indole-1-carboxylate] | 42.1 ± 7.6 µM | 47 ± 4.8 µM | 16.2 ± 3.72 µM | 183 ± 17.9 µM | 43.9 µM | – | – | – | – | – |
| CCOC(=O)C1c2[nH]c3ccccc3c2CCN1C(=O)c1ccc(Cl)cc1 (stereo not drawn) [Compound 7g, Ethyl-2-(4-chlorobenzoyl)-2,3,4,9-tetrahydro-1H-pyrido[3,4-b] indole-1-carboxylate] | 27.3 ± 2.4 µM | 24.9 ± 3.44 µM | 41.4 ± 1.69 µM | 200 ± 9.97 µM | 30.4 µM | 232.3 to 233.5 °C | – | – | – | – |
| CCOC(=O)C1c2[nH]c3ccccc3c2CCN1C(=O)c1ccc2ccccc2c1 (stereo not drawn) [Compound 7h, Ethyl-2-(2-naphthoyl)-2,3,4,9-tetrahydro-1H-pyrido [3,4-b] indole-1-carboxylate] | 25.5 ± 3.92 µM | 16.5 ± 6.64 µM | 17.5 ± 13.8 µM | 183 ± 13.2 µM | 16.4 µM | 209.6 to 211.5 °C | – | – | – | – |
| CCOC(=O)C1c2[nH]c3ccccc3c2CCN1C(=O)c1ccc2c(c1)OCO2 (stereo not drawn) [Compound 7i, Ethyl-2-(benzo [d] [1,3]dioxole-5-carbonyl)-2,3,4,9-tetrahydro-1H-pyrido [3,4-b] indole-1-carboxylate] | 20 ± 5.57 µM | 6.18 ± 2.78 µM | 23.2 ± 9.17 µM | 256 ± 56 µM | 9.38 ± 1.79 µM | 202.5 to 204.6 °C | – | – | – | – |
| O=C1c2ccccc2-[n+]2ccc3c([nH]c4ccccc43)c21 [Fascaplysin] | – | – | – | – | 0.79 ± 0.72 µM | – | 1.05 ± 0.08 µM | 0.56 ± 0.05 µM | 0.24 ± 0.04 µM | 1.86 ± 0.17 µM |
